Data taken from patent publication US6015941A, “Peptide derivatives of tachyplesin having antimicrobial activity” (Pioneer Hi-Bred International, Inc., priority 1997, dated 2000).
Read-outs that look alike come from different tables or passages of the source. Positions of bridges follow the written chain, without caps; N, C: chain ends. Residues, ends and D or L forms follow the SMILES beside them.

Assays:
[1] = tested on: Pseudomonas aeruginosa (ATCC 21036); format: cell-based
[2] = tested on: Staphylococcus aureaus (ATCC 25923); format: cell-based, S. aureus
Fusarium graminearum = format: cell-based
[3] = tested on: Candida albicans (ATCC 10231); format: cell-based
human erythrocytes [4] = conditions: red cells of human, 100 μM
[5] = tested on: Salmonella typhimurium (ATCC 13311); format: cell-based
Fusarium moniliforme = format: cell-based
Aspergillus flavus = format: cell-based
[6] = tested on: Shigella dysenteriae (ATCC 13313); experiment: Disk diffusion assay, human pathogens; format: cell-based
E. coli = format: cell-based
[7] = tested on: maize protoplasts (Black Mexican Sweet)
human erythrocytes [8] = conditions: cited from earlier work
[9] = average of two independent measurements, SD 15%
[10] = minimum complete inhibitory concentration, average of two measurements

Row | Compound | lysis of rabbit erythrocytes (rabbit erythrocytes) | F. graminearum MIC (Fusarium graminearum; [9]) | F. graminearum MCIC (Fusarium graminearum; [10]) | hemolysis of human erythrocytes (human erythrocytes [4]) | F. moniliforme MCIC (Fusarium moniliforme) | F. moniliforme MIC (Fusarium moniliforme) | A. flavus MCIC (Aspergillus flavus) | A. flavus MIC (Aspergillus flavus) | further results
1 | CC[C@H](C)[C@H](NC(=O)CN)C(=O)NCC(=O)N[C@@H](C)C(=O)N[C@H](C(=O)N[C@@H](CC(C)C)C(=O)N[C@@H](CCCCN)C(=O)N[C@H](C(=O)N[C@@H](CC(C)C)C(=O)N[C@H](C(=O)N[C@H](C(=O)NCC(=O)N[C@@H](CC(C)C)C(=O)N1CCC[C@H]1C(=O)N[C@@H](C)C(=O)N[C@@H](CC(C)C)C(=O)N[C@H](C(=O)N[C@@H](CO)C(=O)N[C@@H](Cc1c[nH]c2ccccc12)C(=O)N[C@H](C(=O)N[C@@H](CCCCN)C(=O)N[C@@H](CCCNC(=N)N)C(=O)N[C@@H](CCCCN)C(=O)N[C@@H](CCCNC(=N)N)C(=O)N[C@@H](CCC(N)=O)C(=O)N[C@@H](CCC(N)=O)C(N)=O)[C@@H](C)CC)[C@@H](C)CC)[C@@H](C)O)[C@@H](C)O)C(C)C)C(C)C [Melittin] | complete lysis | – | – | – | – | – | – | – | –
2 | CC[C@H](C)[C@@H]1NC(=O)CNC(=O)[C@H](CCCNC(=N)N)NC(=O)[C@H](Cc2ccc(O)cc2)NC(=O)[C@@H]2CSSC[C@H](NC1=O)C(=O)N[C@@H](Cc1ccc(O)cc1)C(=O)N[C@@H](CCCNC(=N)N)C(=O)N[C@@H](CCCNC(=N)N)C(=O)N[C@H](C(=O)N[C@@H](CCCNC(=N)N)C(=O)O)CSSC[C@H](NC(=O)[C@H](Cc1c[nH]c3ccccc13)NC(=O)[C@@H](N)CCCCN)C(=O)N[C@@H](Cc1ccccc1)C(=O)N[C@@H](CCCNC(=N)N)C(=O)N[C@@H](C(C)C)C(=O)N2 [TP, tachyplesin] (H-KWCFRVCYRGICYRRCR-OH; disulfide 3-16, 7-12) | little or no activity | 8 µM | 17 µM | about 15% | 21 | 8 µM | 34 | 13 µM | P. aeruginosa zone size [1]: 14 mm; S. aureus zone size [2]: 18 mm; C. albicans zone size [3]: 16 mm; S. typhimurium zone size [5]: 18 mm; S. dysenteria zone size ([6]; 50 μg per disk): 18 mm; S. dysenteria zone size ([6]; 100 μg per disk): 18 mm; E. coli MCIC (E. coli): 3; E. coli MIC (E. coli): 1 µM; order of toxicity as measured by cell viability [7]: TPF>TP/TPM>TPI/TPL>TPY>TPA/TPV and TPD
3 | CC[C@H](C)[C@@H]1NC(=O)CNC(=O)[C@H](CCCNC(=N)N)NC(=O)[C@H](Cc2ccc(O)cc2)NC(=O)[C@@H]2CSSC[C@H](NC1=O)C(=O)N[C@@H](Cc1ccc(O)cc1)C(=O)N[C@@H](CCCNC(=N)N)C(=O)N[C@@H](CCCNC(=N)N)C(=O)N[C@H](C(=O)N[C@@H](CCCNC(=N)N)C(N)=O)CSSC[C@H](NC(=O)[C@H](Cc1c[nH]c3ccccc13)NC(=O)[C@@H](N)CCCCN)C(=O)N[C@@H](Cc1ccccc1)C(=O)N[C@@H](CCCNC(=N)N)C(=O)N[C@@H](C(C)C)C(=O)N2 [amidated-TP] (H-KWCFRVCYRGICYRRCR-NH2; disulfide 3-16, 7-12) | – | – | – | about 30% | – | – | – | – | lysis of human erythrocytes (human erythrocytes [8]): 100%
4 | cecropin B | – | 3 µM | 5 µM | – | 20 | 3 µM | > 20 | > 20 µM | –
5 | mastoparan [mastoporan] | – | – | – | – | 11 | 3 µM | > 50 | 24 µM | F. graminearum MCIC (Fusarium graminearum): 8; F. graminearum MIC (Fusarium graminearum): 5 µM
